Experimental data reported in ChEMBL document CHEMBL4014278, “Discovery of uracil-bearing DAPYs derivatives as novel HIV-1 NNRTIs via crystallographic overlay-based molecular hybridization” (Eur J Med Chem, 2017).
pEC50, pIC50: −log10 of the molar value. In brackets after ≈: the same amount, converted by molar mass. Where a name gives a salt, the structure may show the parent alone.

How the values were obtained:
[1] = system: Human immunodeficiency virus 1; assay: Antiviral activity against wild-type HIV1 3B infected in human MT4 cells assessed as protection against virus-induced cytopathic effect measured at 5 days post infection by MTT assay; assay type: functional, cell-based; settings: Human immunodeficiency virus 1, 3B, MT4, 120 h
[2] = system: Human immunodeficiency virus 1; assay: Antiviral activity against HIV1 RES056 harboring K103N/Y181C double mutant infected in human MT4 cells assessed as protection against virus-induced cytopathic effect measured at 5 days post infection by MTT assay; assay type: functional, cell-based; settings: Human immunodeficiency virus 1, RES056, MT4, 120 h
[3] = system: Human immunodeficiency virus 2; assay: Antiviral activity against HIV-2 ROD infected in human MT4 cells assessed as protection against virus-induced cytopathic effect measured at 5 days post infection by MTT assay; assay type: functional, cell-based; settings: Human immunodeficiency virus 2, ISOLATE ROD, MT4, 120 h
[4] = Cytotoxicity against human MT4 cells after 5 days by MTT assay; assay type: cell-based
[5] = Selectivity index, ratio of CC50 for human MT4 cells to EC50 for wild-type HIV1 3B infected in human MT4 cells; assay type: toxicity, cell-based; settings: read-out: Ratio CC50/EC50
[6] = n-Octanol/water partition coefficient, log P of the compound after 2 hrs by HPLC method; assay type: physicochemical
[7] = Solubility of the compound in phosphate buffer at pH 7.4 after 2 hrs by UV-HPLC method; assay type: physicochemical
[8] = Solubility of the compound in phosphate buffer at pH 2 after 2 hrs by UV-HPLC method; assay type: physicochemical
[9] = system: Human immunodeficiency virus 1; assay: Antiviral activity against HIV1 harboring L100I mutant infected in human MT4 cells assessed as protection against virus-induced cytopathic effect measured at 5 days post infection by MTT assay; assay type: functional, cell-based; settings: Human immunodeficiency virus 1, MT4, 120 h
[10] = system: Human immunodeficiency virus 1; assay: Antiviral activity against HIV1 harboring K103N mutant infected in human MT4 cells assessed as protection against virus-induced cytopathic effect measured at 5 days post infection by MTT assay; assay type: functional, cell-based; settings: Human immunodeficiency virus 1, MT4, 120 h
[11] = system: Human immunodeficiency virus 1; assay: Antiviral activity against HIV1 harboring Y181C mutant infected in human MT4 cells assessed as protection against virus-induced cytopathic effect measured at 5 days post infection by MTT assay; assay type: functional, cell-based; settings: Human immunodeficiency virus 1, MT4, 120 h
[12] = system: Human immunodeficiency virus 1; assay: Antiviral activity against HIV1 harboring Y188L mutant infected in human MT4 cells assessed as protection against virus-induced cytopathic effect measured at 5 days post infection by MTT assay; assay type: functional, cell-based; settings: Human immunodeficiency virus 1, MT4, 120 h
[13] = system: Human immunodeficiency virus 1; assay: Antiviral activity against HIV1 harboring E138K mutant infected in human MT4 cells assessed as protection against virus-induced cytopathic effect measured at 5 days post infection by MTT assay; assay type: functional, cell-based; settings: Human immunodeficiency virus 1, MT4, 120 h
[14] = system: Human immunodeficiency virus 1; assay: Antiviral activity against HIV1 harboring F227L/V106A double mutant infected in human MT4 cells assessed as protection against virus-induced cytopathic effect measured at 5 days post infection by MTT assay; assay type: functional, cell-based; settings: Human immunodeficiency virus 1, MT4, 120 h
[15] = system: Human immunodeficiency virus 1; assay: Fold resistance, ratio of EC50 for HIV1 harboring L100I mutant infected in human MT4 cells to EC50 for wild-type HIV1 3B infected in human MT4 cells; assay type: functional
[16] = system: Human immunodeficiency virus 1; assay: Fold resistance, ratio of EC50 for HIV1 harboring K103N mutant infected in human MT4 cells to EC50 for wild-type HIV1 3B infected in human MT4 cells; assay type: functional
[17] = system: Human immunodeficiency virus 1; assay: Fold resistance, ratio of EC50 for HIV1 harboring Y181C mutant infected in human MT4 cells to EC50 for wild-type HIV1 3B infected in human MT4 cells; assay type: functional
[18] = system: Human immunodeficiency virus 1; assay: Fold resistance, ratio of EC50 for HIV1 harboring Y188L mutant infected in human MT4 cells to EC50 for wild-type HIV1 3B infected in human MT4 cells; assay type: functional
[19] = system: Human immunodeficiency virus 1; assay: Fold resistance, ratio of EC50 for HIV1 harboring E138K mutant infected in human MT4 cells to EC50 for wild-type HIV1 3B infected in human MT4 cells; assay type: functional
[20] = Inhibition of wild-type HIV1 reverse transcriptase assessed as decrease in biotin-dUTP incorporation using poly(A)/oligo(dT)15 as template/primer after 1 hr by ELISA; design: species or system Human immunodeficiency virus 1

Row | SMILES | pEC50 [1] | pEC50 [2] | pEC50 [3] | CC50 at 120 h [4] | selectivity ratio [5] | also measured
1 | Cc1cc(C)c(Oc2cc(Cl)nc(NCCn3ccc(=O)[nH]c3=O)n2)c(C)c1 | 6.28 | < 4.36 | < 4.36 | 44.1 µM | 85 | –
2 | Cc1cc(C)c(Nc2nc(NCCn3ccc(=O)[nH]c3=O)ncc2[N+](=O)[O-])c(C)c1 | 7.08 | < 5.48 | < 5.48 | ≥ 3.33 µM | ≥ 40 | –
3 | Cc1cc(C)cc(Oc2cc(NCCn3ccc(=O)[nH]c3=O)nc(Cl)n2)c1 | < 4.00 | – | < 4.00 | 99.5 µM | < 1 | –
4 | Cc1cc(C)c(Oc2ccnc(NCCn3ccc(=O)[nH]c3=O)n2)c(C)c1 | 6.28 | < 3.57 | < 3.57 | 272 µM | 515 | –
5 | Cc1cc(C#N)cc(C)c1Oc1ccnc(NCCn2ccc(=O)[nH]c2=O)n1 | 5.18 | < 4.45 | < 4.45 | 35.8 µM | 5 | logP at 2 h [6]: -0.11; solubility at 2 h [7]: 62.9 µg/mL (≈ 166 µM); solubility at 2 h [8]: > 100 µg/mL
6 | Cc1cc(/C=C/C#N)cc(C)c1Oc1cc(Cl)nc(NCCn2ccc(=O)[nH]c2=O)n1 | 6.92 | < 3.55 | < 3.55 | > 285 µM | > 2270 | –
7 | Cc1cc(C#N)cc(C)c1Oc1cc(Cl)nc(NCCn2ccc(=O)[nH]c2=O)n1 | 5.11 | < 4.69 | < 4.69 | 20.6 µM | 3 | –
8 | Cc1cc(C)c(Oc2cc(N)nc(NCCn3ccc(=O)[nH]c3=O)n2)c(C)c1 | 5.57 | < 3.92 | < 3.92 | 119 µM | 44 | –
9 | Cc1cc(C)c(Oc2cc(NCCn3ccc(=O)[nH]c3=O)nc(Cl)n2)c(C)c1 | < 4.37 | – | < 4.12 | 76.4 µM | ≤ 2 | –
10 | Cc1cc(C#N)cc(C)c1Oc1nc(NCCn2ccc(=O)[nH]c2=O)ncc1Cl | 7.34 | < 4.93 | < 4.93 | > 11.7 µM | ≥ 255 | –
11 | Cc1cc(C#N)cc(C)c1Oc1nc(NCCn2ccc(=O)[nH]c2=O)nc(N)c1Br | 7.47 | < 3.58 | < 3.58 | > 265 µM | > 7680 | –
12 | Cc1cc(C)cc(Oc2cc(N)nc(NCCn3ccc(=O)[nH]c3=O)n2)c1 | < 4.34 | – | < 3.90 | 127 µM | < 1 | –
13 | Cc1cc(C)cc(Oc2cc(Cl)nc(NCCn3ccc(=O)[nH]c3=O)n2)c1 | < 4.25 | – | < 4.25 | > 56.5 µM | > 1 | –
14 | Cc1cc(C)c(Nc2nc(NCCn3ccc(=O)[nH]c3=O)ncc2N)c(C)c1 | 4.83 | < 3.52 | < 3.52 | > 199 µM | > 20 | –
15 | Cc1cc(/C=C/C#N)cc(C)c1Oc1nc(NCCn2ccc(=O)[nH]c2=O)ncc1Cl | 8.25 | 4.63 | < 3.55 | > 285 µM | > 50500 | pEC50 [9]: 6.37; pEC50 [10]: 7.07; pEC50 [11]: 6.82; pEC50 [12]: 4.28; pEC50 [13]: 7.47; pEC50 [14]: ≤ 4.01; Ratio EC50 [15]: 77; Ratio EC50 [16]: 15; Ratio EC50 [17]: 27; Ratio EC50 [18]: 9277; Ratio EC50 [19]: 6; pIC50 [20]: 5.80; solubility at 2 h [7]: < 0.1 µg/mL
16 | Cc1cc(/C=C/C#N)cc(C)c1Oc1ccnc(NCCn2ccc(=O)[nH]c2=O)n1 | 7.47 | < 3.51 | < 3.51 | > 309 µM | > 9100 | solubility at 2 h [7]: < 1 µg/mL
17 | Cc1cc(C=CC#N)cc(C)c1Oc1cc(NCCn2ccc(=O)[nH]c2=O)nc(Cl)n1 | 5.24 | – | < 4.58 | 26.2 µM | 5 | –
18 | Cc1cc(C)c(Oc2nc(NCCn3ccc(=O)[nH]c3=O)ncc2Cl)c(C)c1 | 8.11 | < 5.60 | < 5.60 | 2.49 µM | 317 | –
19 | Cc1cc(C#N)cc(C)c1Oc1cc(N)nc(NCCn2ccc(=O)[nH]c2=O)n1 | 4.72 | < 3.69 | < 3.69 | 204 µM | 11 | –
20 | Cc1cc(C)c(Oc2nc(Cl)ncc2NCCn2ccc(=O)[nH]c2=O)c(C)c1 | < 5.54 | < 5.54 | < 5.54 | 2.89 µM | < 1 | –
21 | Cc1cc(C#N)cc(C)c1Oc1cc(NCCn2ccc(=O)[nH]c2=O)nc(Cl)n1 | 5.03 | < 4.55 | < 4.55 | 27.9 µM | 3 | –
22 | Cc1cc(C)cc(Oc2nc(NCCn3ccc(=O)[nH]c3=O)ncc2Cl)c1 | 6.06 | < 3.49 | < 3.49 | > 322 µM | > 367 | –
23 | Cc1cc(C)cc(Oc2ccnc(NCCn3ccc(=O)[nH]c3=O)n2)c1 | 4.31 | < 4.13 | < 4.13 | 74.8 µM | 2 | –
24 | CC(C)Nc1cccnc1N1CCN(C(=O)c2cc3cc(NS(C)(=O)=O)ccc3[nH]2)CC1 [DELAVIRDINE MESYLATE] | – | 7.49 | – | 30.4 µM | – | pEC50 [9]: 5.68; pEC50 [11]: 5.69; pEC50 [12]: 6.16; pEC50 [13]: 7.37
25 | O=C1Nc2ccc(Cl)cc2[C@@](C#CC2CC2)(C(F)(F)F)O1 [EFAVIRENZ] | – | – | – | > 6.34 µM | – | pEC50 [9]: 7.00; pEC50 [11]: 8.17; pEC50 [12]: 6.47; pEC50 [14]: 6.68
26 | Cc1ccnc2c1NC(=O)c1cccnc1N2C1CC1 [NEVIRAPINE] | – | 6.59 | – | > 15 µM | – | pEC50 [9]: 6.08; pEC50 [11]: 5.21; pEC50 [12]: 5.02; pIC50 [20]: 5.86
27 | Cc1cn([C@H]2C[C@H](N=[N+]=[N-])[C@@H](CO)O2)c(=O)[nH]c1=O [ZIDOVUDINE] | – | 8.15 | – | > 7.48 µM | > 1050 | pEC50 [10]: 8.08; pEC50 [11]: 8.15; pEC50 [12]: 7.96; pEC50 [13]: 7.89; pEC50 [14]: 8.30
